The results in this text go back to US9018196B2, “Development of a new formulation overcoming thymus atrophy with concomitantly enhancement of anti-inflammatory effect of dexamethasone” (Macau University of Science and Technology, priority 2013, dated 2015).

Holding throughout (assay type): in vivo, Balb/c mice
One series relates to CD4+CD8+ thymocytes. The experiment in a line: Flow cytometry assay for detection of CD4 and CD8 expression in thymocytes. To be noted: DNFB-induced DTH mice, topical application; control and model groups about 76%. On the procedure:
(§1) Male Balb/c mice, weighing 19-21 g were sensitized through topical application of 20 μl of 0.5% (v/v) DNFB in acetone onto the shaved abdomen on days 1 and 2. Challenge was then preformed on day 6 by applying DNFB (20 μl, 0.5%, v/v) on the left inner and outer ear surfaces of mice. DMY (at dosage of 1 mg/ear) and/or DEX (1.5625 μg/ml) dissolved in acetone was topically applied (20 μl) to the ears at 2nd, 24th, 48th, 72nd, hour after the challenge. The edema was calculated as the difference between the thickness of left and right ear at the 24th, 48th and 72nd h after challenge. […] The control 100 group was treated only with DNFB or solvent solution.
The animal model was conducted as mentioned in section 1.1 of Example 1 above, in which after the mice were sacrificed by cervical dislocation, the thymocytes were isolated and washed by PBS. The cells were stained by 20 μL CD4 with CD8 for 30 min avoiding from light, followed by 4% PFA to fix the cells, and flow cytometery was then conducted.
(In general: A flow cytometer gives signals particle by particle.)

The subject of another series is thymocytes. The experiment in a line: Flow cytometry assay for detection of thymocyte apoptosis (Annexin V-FITC and PI). To be noted: DNFB-induced DTH mice, model group about 72%.
The subject of series [1] is ear edema of DTH mice induced by DNFB. The series is described as follows: Delay-type hypersensitivity test (DTHT) in mice: ear edema. To be noted: topical, DMY 1 mg/ear and/or DEX 1.5625 μg/ml, 24th, 48th, 72nd h after challenge, vs Model Group. On the procedure:
as §1
FIGS. 1a and 1b show the effects of DEX, DMY and the combinational application of DMY and DEX (illustrated as the DMY+DEX group) on treatment of ear edema of DTH mice induced by DNFB. Edema as expressed as the increase in ear thickness (ΔT in micrometer±S.E.M.) in the DNFB experiments. Percentages of inhibition (% I) for each measurement were calculated from values for the DEX, DMY and DMY+ DEX groups with respect to those for the Model Group. Statistically significant differences with respect to the Model Group are expressed as *P<0.05 and **P<0.01 (Dunnett's t test).
The animal model was conducted as mentioned in section 1.1 of Example 1 above. […]

In series [2] the test system is mononuclear cell infiltrate in the ear. The experiment in a line: Histological examination of ear inflammation. To be noted: DNFB-treated mice, ear histology. On the procedure:
as §1
(§2) The animal model was conducted as mentioned in section 1.1 of Example 1 above. […] Antigens were retrieved by steaming samples in DAKO target retrieval buffer (DAKO) for 20 minutes. After the nonspecific binding sites were blocked, the sections were incubated overnight at 4° C. with CD4 or CD8 antibodies (Phoenix Pharmaceuticals).
(§3) Sections were stained with 3,3′-diaminobenzidine substrate and counterstained with Meyer hematoxylin and eosin.

Series [3] has as its system CD4+ and CD8+ cells in the ears. The series is described as follows: Immunohistochemical staining of CD4 and CD8 in ear sections. To be noted: immunohistochemical analysis; in comparison with the Model Group. On the procedure:
as §1, §2, §3

The test system of the next series is thymic architecture. The experiment in a line: Histological examination of thymus. To be noted: compared with DEX-treated animals. On the procedure:
as §1

Series [4] deals with signal-joint TRECs in thymocytes. The experiment in a line: Quantification of signal-joint TRECs. To be noted: compared with the DEX-treated animals. On the procedure:
as §1
DNA was isolated from purified thymic T cells using DNA purification kit. PCR was performed using mδRec- and ψJα-specific primers and an mδRec-ψJα fluorescent probe as described previously. The standard curves for murine TRECs were generated using a mδRec-ψJα TREC PCR product cloned into a pc DNA3.1 plasmid from Prof. Gregory D. Sempowski (Duke Human Vaccine Institute, Duke University Medical Center, Durham, N.C., USA.). The assay was performed on slides according to previous study.

Structures are written as SMILES.

Consider `C[C@@H]1C[C@H]2[C@@H]3CCC4=CC(=O)C=C[C@]4(C)[C@@]3(F)[C@@H](O)C[C@]2(C)[C@@]1(O)C(=O)CO` [DEX, dexamethasone], for which, in the series on CD4+CD8+ thymocytes, the “CD4+CD8+ T cell population in thymus” value was found to be 54.7%. In addition, the “ratio of thymocyte apoptosis” value with thymocytes amounted to 77.9%.

For `O=C1c2c(O)cc(O)cc2O[C@H](c2cc(O)c(O)c(O)c2)[C@H]1O` [DMY, dihydromyricetin], in series [1], the “effect on ear edema (increase in ear thickness, percentages of inhibition)” value is recorded as “could inhibit ear edema”. The “number of inflammatory cells in the ear” value in series [2] is listed as “could be significantly reduced”. For the same molecule, the “accounts of CD4+ and CD8+ cells in the treated ears” value in series [3] is “shown to reduce the accounts of CD4+ and CD8+ cells”. In addition, the “thymic architecture (corticomedullary junctions)” value in the series with thymic architecture is given as “significantly improve the thymic architecture”. In addition, the “levels of signal-joint TRECs in thymocytes” value in series [4] is reported as “could increase the levels of signal-joint TRECs”.
